Measured values taken from patent US20110257168A1, “DERIVATIVES OF OXABISPIDINE AS NEURONAL NICOTINIC ACETYLCHOLINE RECEPTOR LIGANDS” (Targacept, Inc., priority 2008, published 2011).
Where two headings read alike, the source gives them in different places.

Assays:
[1] = molecular target: T1, Human α7 (Homo sapiens, UniProt P36544); test: Competition binding to human α7 receptors in membrane preparations; conditions: membranes, [3H]-epibatidine competition; Ki by Cheng-Prusoff; read-out: Human α7 Ki
T1 construct: host or cells: HEK cells co-expressing RIC3
Experimental: (§1) SH-EP1/human α4β2 (Eaton et al., 2003), SH-EP1/human α4β4 (Gentry et al., 2003), SH-EP1/α6β3β4α5 (Grinevich et al., 2005), TE671/RD and SH-SY5Y cell lines (obtained from Dr. Ron Lukas, Barrow Neurological Institute) were maintained in proliferative growth phase in Dulbecco's modified Eagle's medium (Gibco/BRL) with 10% horse serum (Gibco BRL), 5% fetal bovine serum (HyClone, Logan Utah), 1 mM sodium pyruvate, 4 mM L-glutamine. For maintenance of stable transfectants, the α4β2 and α4β4 cell media was supplemented with 0.25 mg/mL zeocin and 0.13 mg/mL hygromycin B. Selection was maintained for the α6β3β4α5 cells with 0.25 mg/mL of zeocin, 0.13 mg/mL of hygromycin B, 0.4 mg/mL of geneticin, and 0.2 mg/mL of blasticidin. HEK/human α7/RIC3 cells (obtained from J. Lindstrom, U. Pennsylvania) were maintained in proliferative growth phase in Dulbecco's modified Eagle's medium (Gibco/BRL) with 10% fetal bovine serum (HyClone, Logan Utah), 1 mM sodium pyruvate, 4 mM L-glutamine, 0.4 mg/mL geneticin; 0.2 mg/ml hygromycin B.
(§2) Preparation of membranes from rat tissues. Rat cortices were obtained from Analytical Biological Services, Incorporated (ABS, Wilmington, Del.). Tissues were dissected from female Sprague-Dawley rats, frozen and shipped on dry ice. Tissues were stored at −20° C. until needed for membrane preparation. Cortices from 10 rats were pooled and homogenized by Polytron (Kinematica GmbH, Switzerland) in 10 volumes (weight:volume) of ice-cold preparative buffer (KCl, 11 mM; KH2PO4, 6 mM; NaCl 137 mM; Na2HPO4 8 mM; HEPES (free acid), 20 mM; iodoacetamide, 5 mM; EDTA, 1.5 mM; 0.1 mM PMSF pH 7.4). The resulting homogenate was centrifuged at 40,000 g for 20 minutes at 4° C. and the resulting pellet was resuspended in 20 volumes of ice-cold water. After 60-minute incubation at 4° C., a new pellet was collected by centrifugation at 40,000 g for 20 minutes at 4° C. The final pellet was resuspended in preparative buffer and stored at −20° C. On the day of the assay, tissue was thawed, centrifuged at 40,000 g for 20 minutes and then resuspended in PBS (Dulbecco's Phosphate Buffered Saline, Life Technologies, pH 7.4) to a final concentration of 2-3 mg protein/mL. Protein concentrations were determined using the Pierce BCA Protein Assay kit (Pierce Biotechnology, Rockford, Ill.), with bovine serum albumin as the standard. Preparation of membranes from clonal cell lines. Cells were harvested in ice-cold PBS, pH 7.4, then homogenized with a polytron (Brinkmann Instruments, Westbury, N.Y.). Homogenates were centrifuged at 40,000 g for 20 minutes (4° C.). The pellet was resuspended in PBS and protein concentration determined using the Pierce BCA Protein Assay kit (Pierce Biotechnology, Rockford, Ill.).
(§3) Competition binding to receptors in membrane preparations. Binding to nicotinic receptors was assayed on membranes using standard methods adapted from published procedures (Lippiello and Fernandes, 1986; Davies et al., 1999). In brief, membranes were reconstituted from frozen stocks (approximately 0.2 mg protein) and incubated for 2 h on ice in […] assay buffer (PBS) in the presence of competitor compound (0.001 nM to […]) and radioligand. [^3H]-nicotine (L-(−)-[N-methyl-3H]-nicotine, 69.5 Ci/mmol, Perkin-Elmer Life Sciences) was used for human α4β2 binding studies. [^3H]-epibatidine (52 Ci/mmol, Perkin-Elmer Life Sciences) was used for binding studies at the other receptor subtypes. Incubation was terminated by rapid filtration on a multimanifold tissue harvester (Brandel, Gaithersburg, Md.) using GF/B filters presoaked in 0.33% polyethyleneimine (w/v) to reduce non-specific binding. Filters were washed 3 times and the radioactivity retained was determined by liquid scintillation counting.
(§4) Binding data analysis. Binding data were expressed as percent total control binding. Replicates for each point were averaged and plotted against the log of drug concentration. […]

[2] = molecular target: human α4β2 (Homo sapiens, UniProt P17787+P43681); test: Competition binding to human α4β2 receptors in membrane preparations
Experimental: as §1, §2, §3, §4

[3] = molecular target: T2, Rat α4β2 (Rattus norvegicus, UniProt P09483+P12390); test: Competition binding to rat α4β2 receptors in membrane preparations
T2 construct: Preparation of membranes from rat tissues; Rat cortices were obtained from Analytical Biological Services; tissue Analytical Biological Services, Incorporated (ABS, Wilmington, Del.); host or cells: rat cortex membranes (female Sprague-Dawley)
Experimental: as §2, §3
(§5) Binding data analysis. Binding data were expressed as percent total control binding. Replicates for each point were averaged and plotted against the log of drug concentration. The IC50 (concentration of the compound that produces 50% inhibition of binding) was determined by least squares non-linear regression using GraphPad Prism software (GraphPAD, San Diego, Calif.). Ki was calculated using the Cheng-Prusoff equation (Cheng and Prusoff, 1973).

[4] = molecular target: T3, Rat α7 (Rattus norvegicus, UniProt Q05941); test: Competition binding to rat α7 receptors in membrane preparations; conditions: membranes, [3H]-epibatidine competition; Ki by Cheng-Prusoff; read-out: Rat α7 Ki
T3 construct: Preparation of membranes from rat tissues; Rat cortices were obtained from Analytical Biological Services; tissue Analytical Biological Services, Incorporated (ABS, Wilmington, Del.); host or cells: rat brain membranes (only cortex is described)
Experimental: as §2, §3, §5

[5] = membranes, [3H]-nicotine competition, Ki by Cheng-Prusoff, read-out: human α4β2 Ki
[6] = membranes, [3H]-epibatidine competition, Ki by Cheng-Prusoff, read-out: Rat α4β2 Ki

SMILES	Ki [1] [nM]	Ki [2, 5] [nM]	Ki [3] [nM]	Ki [3, 6] [nM]	Ki [4] [nM]	Ki [2] [nM]
c1ncc(N2CC3CNCC(C2)O3)cc1C1CC1 [3-(5-cyclopropylpyridin-3-yl)-9-oxa-3,7-diazabicyclo[3.3.1]nonane]	1300	2	6.4	–	–	–
FC(F)Oc1cc(N2CC3CNCC(C2)O3)cnc1Cl [3-(6-chloro-5-(difluoromethoxy)pyridin-3-yl)-9-oxa-3,7-diazabicyclo[3.3.1]nonane]	560	0.16	0.08	–	–	–
FCCCOc1cc(N2CC3CNCC(C2)O3)cnc1Cl [3-(5-(3-fluoropropoxy)-6-chloropyridin-3-yl)-9-oxa-3,7-diazabicyclo[3.3.1]nonane]	1900	0.38	0.73	–	–	–
c1cc2ncc(N3CC4CNCC(C3)O4)cc2o1 [3-(furo[3,2-b]pyridin-6-yl)-9-oxa-3,7-diazabicyclo[3.3.1]nonane]	5700	50	91	–	–	–
c1cnc(N2CC3CNCC(C2)O3)cn1 [3-(pyrazin-2-yl)-9-oxa-3,7-diazabicyclo[3.3.1]nonane]	2200	37	–	250	–	–
c1cncc(N2CC3CNCC(C2)O3)c1 [3-(pyridin-3-yl)-9-oxa-3,7-diazabicyclo[3.3.1]nonane]	670	1.1	3.9	–	650	–
Clc1ccc(Oc2cncc(N3CC4CNCC(C3)O4)c2)cc1Cl [3-(5-(3,4-dichlorophenoxy)pyridin-3-yl)-9-oxa-3,7-diazabicyclo[3.3.1]nonane]	360	3.5	11	–	210	–
Clc1ccc(N2CC3CNCC(C2)O3)cn1 [3-(6-chloropyridin-3-yl)-9-oxa-3,7-diazabicydo[3.3.1]nonane]	240	1.2	5.2	–	210	–
N#Cc1ccc(N2CC3CNCC(C2)O3)cn1 [3-(6-cyanopyridin-3-yl)-9-oxa-3,7-diazabicyclo[3.3.1]nonane]	8100	42	–	290	–	–
Cc1cncc(N2CC3CNCC(C2)O3)c1 [3-(5-methylpyridin-3-yl)-9-oxa-3,7-diazabicydo[3.3.1]nonane]	4500	0.3	0.5	–	200	–
FCCCCOc1cc(N2CC3CNCC(C2)O3)cnc1Cl [3-(5-(4-fluorobutoxy)-6-chloropyridin-3-yl)-9-oxa-3,7-diazabicyclo[3.3.1]nonane]	1500	0.3	0.35	–	–	–
COc1cncc(N2CC3CNCC(C2)O3)c1 [3-(5-methoxypyridin-3-yl)-9-oxa-3,7-diazabicyclo[3.3.1]nonane]	350	0.9	1.9	–	560	–
c1ncc(N2CC3CNCC(C2)O3)cc1OCC1CC1 [3-(5-(cyclopropylmethoxy)pyridin-3-yl)-9-oxa-3,7-diazabicyclo[3.3.1]nonane]	–	0.5	2.9	–	9300	–
Fc1ccc(N2CC3CNCC(C2)O3)cn1 [3-(6-fluoropyridin-3-yl)-9-oxa-3,7-diazabicyclo[3.3.1]nonane]	180	2.5	16	–	1400	–
FC(F)(F)c1cncc(N2CC3CNCC(C2)O3)c1 [3-(5-trifluoromethylpyridin-3-yl)-9-oxa-3,7-diazabicyclo[3.3.1]nonane]	–	3.8	9.7	–	17000	–
FC(F)Oc1cncc(N2CC3CNCC(C2)O3)c1 [3-(5-(difluoromethoxy)pyridin-3-yl)-9-oxa-3,7-diazabicyclo[3.3.1]nonane]	1600	–	–	0.36	–	0.42
Clc1cc(N2CC3CNCC(C2)O3)cnc1Cl [3-(5,6-dichloropyridin-3-yl)-9-oxa-3,7-diazabicyclo[3.3.1]nonane]	39	–	–	0.7	84	0.3
c1cc2cc(N3CC4CNCC(C3)O4)cnc2o1 [3-(furo[2,3-b]pyridin-5-yl)-9-oxa-3,7-diazabicyclo[3.3.1]nonane]	6600	48	23	–	–	–
Clc1ccccc1Oc1cncc(N2CC3CNCC(C2)O3)c1 [3-(5-(2-chlorophenoxy)pyridin-3-yl)-9-oxa-3,7-diazabicyclo[3.3.1]nonane]	430	–	–	14	–	3.6
Cc1ccc(N2CC3CNCC(C2)O3)cn1 [3-(6-methylpyridin-3-yl)-9-oxa-3,7-diazabicydo[3.3.1]nonane]	600	–	–	30	–	4.9
FCCOc1cc(N2CC3CNCC(C2)O3)cnc1Cl [3-(5-(2-fluoroethoxy)-6-chloropyridin-3-yl)-9-oxa-3,7-diazabicyclo[3.3.1]nonane]	1600	0.21	0.41	–	–	–
CN1CC2CN(c3cccnc3)CC(C1)O2 [3-methyl-7-(pyridin-3-yl)-9-oxa-3,7-diazabicyclo[3.3.1]nonane]	5900	95	–	180	–	–
CC(C)Oc1cncc(N2CC3CNCC(C2)O3)c1 [3-(5-isopropoxypyridin-3-yl)-9-oxa-3,7-diazabicyclo[3.3.1]nonane]	–	0.9	1.3	–	61000	–
CN1CC2CN(c3cncc(F)c3)CC(C1)O2 [3-(5-fluoropyridin-3-yl)-7-methyl-9-oxa-3,7-diazabicyclo[3.3.1]nonane]	2100	33	–	280	–	–
Cc1cncc(N2CC3CN(C)CC(C2)O3)c1 [3-(5-methylpyridin-3-yl)-7-methyl-9-oxa-3,7-diazabicyclo[3.3.1]nonane]	8700	25	–	370	–	–
FC(F)(F)c1ccc(N2CC3CNCC(C2)O3)cn1 [3-(6-trifluoromethylpyridin-3-yl)-9-oxa-3,7-diazabicyclo[3.3.1]nonane]	1900	–	–	48	–	6.8
COc1cccc(N2CC3CNCC(C2)O3)c1 [3-(3-methoxyphenyl)-9-oxa-3,7-diazabicyclo[3.3.1]nonane]	800	33	–	110	–	–
Clc1ccc(N2CC3CNCC(C2)O3)nn1 [3-(6-chloropyridazin-3-yl)-9-oxa-3,7-diazabicyclo[3.3.1]nonane]	1300	–	–	96	–	63
